This note sets out measurements from US12404285B2, “KRAS G12D proteolysis targeting chimeras” (PAQ Therapeutics Inc., priority 2022, dated 2025).

T1 sequence (P01116 1-188 isoform P01116-2 G12D): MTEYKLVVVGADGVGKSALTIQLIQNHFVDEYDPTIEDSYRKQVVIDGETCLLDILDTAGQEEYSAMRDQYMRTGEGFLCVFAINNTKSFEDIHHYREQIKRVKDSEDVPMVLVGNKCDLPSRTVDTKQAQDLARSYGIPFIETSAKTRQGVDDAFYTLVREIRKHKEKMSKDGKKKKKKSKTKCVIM

This test has as its target T1, KRAS (G12D)-HiBit in AsPc-1-KRAS (G12D)-HiBit-KI cell (Homo sapiens, UniProt P01116, G12D).
T1 construct: host or cells: AsPc-1-KRAS (G12D)-HiBit-KI cells (knock-in line)
As to the kind of experiment: G12D HiBit assay. The format is cell-based. The settings on record: 24 hours compound treatment, absolute DC50, read-out: Average PHA DC50. The method, boiled down: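 Degradation of endogenous HiBiT-tagged KRAS G12D in AsPc-1 knock-in cells read after 24 h compound exposure (0.015-300 nM, 3-fold steps) by Nano-Glo HiBiT lytic luminescence. Signal normalised to DMSO-only cells; absolute DC50 derived by curve fitting.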
On the technique in general: HiBiT is a short tag that completes a luciferase, so light tracks the accessible tagged protein.
Take `C#Cc1c(F)ccc2cccc(-c3ncc4c(N5CC6CCC(C5)N6)nc(OC[C@@]56CCCN5[C@H](COC(=O)N5CCC7(CC5)CCN(c5cccc8c5n(C)c(=O)n8C5CCC(=O)NC5=O)CC7)CC6)nc4c3F)c12` (stereo partly drawn) [Compound 129, [(3S,8S)-8-[[4-(3,8-Diazabicyclo[3.2.1]octan-3-yl)-7-(8-ethynyl-7-fluoro-1-naphthyl)-8-fluoro-pyrido[4,3-d]pyrimidin-2-yl]oxymethyl]-1,2,3,5,6,7-hexahydropyrrolizin-3-yl]methyl9-[1-(2,6-dioxo-3-piperidyl)-3-methyl-2-oxo-benzimidazol-4-yl]-3,9-diazaspiro[5.5]undecane-3-carboxylate]: the DC50 is at least 300 nM.

Consider `C#Cc1c(F)ccc2cccc(-c3ncc4c(N5CC6CCC(C5)N6)nc(OC[C@@]56CCCN5[C@H](COC(=O)N5CCC(OC7CCN(Cc8cccc9c8n(C)c(=O)n9C8CCC(=O)NC8=O)CC7)CC5)CC6)nc4c3F)c12` (stereo partly drawn) [Compound 130, [(3S,8S)-8-[[4-(3,8-Diazabicyclo[3.2.1]octan-3-yl)-7-(8-ethynyl-7-fluoro-1-naphthyl)-8-fluoro-pyrido[4,3-d]pyrimidin-2-yl]oxymethyl]-1,2,3,5,6,7-hexahydropyrrolizin-3-yl]methyl4-[[1-[[1-(2,6-dioxo-3-piperidyl)-3-methyl-2-oxo-benzimidazol-4-yl]methyl]-4-piperidyl]oxy]piperidine-1-carboxylate], for which the DC50 was below 100 nM.

`C#Cc1c(F)ccc2cccc(-c3ncc4c(N5CC6CCC(C5)N6)nc(OC[C@@]56CCCN5[C@H](COC(=O)N5CCC(N7CCN(c8cccc9c8n(C)c(=O)n9C8CCC(=O)NC8=O)CC7)CC5)CC6)nc4c3F)c12` (stereo partly drawn) [Compound 131, [(3S,8S)-8-[[4-(3,8-Diazabicyclo[3.2.1]octan-3-yl)-7-(8-ethynyl-7-fluoro-1-naphthyl)-8-fluoro-pyrido[4,3-d]pyrimidin-2-yl]oxymethyl]-1,2,3,5,6,7-hexahydropyrrolizin-3-yl]methyl4-[4-[1-(2,6-dioxo-3-piperidyl)-3-methyl-2-oxo-benzimidazol-4-yl]piperazin-1-yl]piperidine-1-carboxylate]: the DC50 is at least 300 nM.

On to `C#Cc1c(F)ccc2cccc(-c3ncc4c(N5C[C@H]6CC[C@@H](C5)N6)nc(OC[C@@]56CCCN5[C@H](COC(=O)N5CCC(CC7CCN(Cc8cccc9c8n(C)c(=O)n9C8CCC(=O)NC8=O)CC7)CC5)CC6)nc4c3F)c12` (stereo partly drawn) [Compound 132, ((3S,7aS)-7a-(((4-((1R,5S)-3,8-Diazabicyclo[3.2.1]octan-3-yl)-7-(8-ethynyl-7-fluoronaphthalen-1-yl)-8-fluoropyrido[4,3-d]pyrimidin-2-yl)oxy)methyl)hexahydro-1H-pyrrolizin-3-yl)methyl4-((1-((1-(2,6-dioxopiperidin-3-yl)-3-methyl-2-oxo-2,3-dihydro-1H-benzo[d]imidazol-4-yl)methyl)piperidin-4-yl)methyl)piperidine-1-carboxylate], for which the DC50 was below 100 nM.

Consider `C#Cc1c(F)ccc2cccc(-c3ncc4c(N5CC6CCC(C5)N6)nc(OC[C@@]56CCCN5[C@H](COC(=O)N5CCC(OCCc7ccc8c(c7)n(C)c(=O)n8C7CCC(=O)NC7=O)CC5)CC6)nc4c3F)c12` (stereo partly drawn) [Compound 133, [(3S,8S)-8-[[4-(3,8-Diazabicyclo[3.2.1]octan-3-yl)-7-(8-ethynyl-7-fluoro-1-naphthyl)-8-fluoro-pyrido[4,3-d]pyrimidin-2-yl]oxymethyl]-1,2,3,5,6,7-hexahydropyrrolizin-3-yl]methyl 4-[2-[1-(2,6-dioxo-3-piperidyl)-3-methyl-2-oxo-benzimidazol-5-yl]ethoxy]piperidine-1-carboxylate], for which the DC50 was at least 300 nM.

As to `C#Cc1c(F)ccc2cccc(-c3ncc4c(N5CC6CCC(C5)N6)nc(OC[C@@]56CCCN5[C@H](COC(=O)N(C)CCC5CCN(Cc7cccc8c7n(C)c(=O)n8C7CCC(=O)NC7=O)CC5)CC6)nc4c3F)c12` (stereo partly drawn) [Compound 134, [(3S,8S)-8-[[4-(3,8-diazabicyclo[3.2.1]octan-3-yl)-7-(8-ethynyl-7-fluoro-1-naphthyl)-8-fluoro-pyrido[4,3-d]pyrimidin-2-yl]oxymethyl]-1,2,3,5,6,7-hexahydropyrrolizin-3-yl]methyl N-[2-[1-[[1-(2,6-dioxo-3-piperidyl)-3-methyl-2-oxo-benzimidazol-4-yl]methyl]-4-piperidyl]ethyl]-N-methyl-carbamate], the DC50 is below 100 nM.

For the compound `C#Cc1c(F)ccc2cccc(-c3ncc4c(N5CC6CCC(C5)N6)nc(OC[C@@]56CCCN5[C@H](COC(=O)N5CCC(OCCc7cccc8c7n(C)c(=O)n8C7CCC(=O)NC7=O)CC5)CC6)nc4c3F)c12` (stereo partly drawn) [Compound 135, [(3S,8S)-8-[[4-(3,8-Diazabicyclo[3.2.1]octan-3-yl)-7-(8-ethynyl-7-fluoro-1-naphthyl)-8-fluoro-pyrido[4,3-d]pyrimidin-2-yl]oxymethyl]-1,2,3,5,6,7-hexahydropyrrolizin-3-yl]methyl 4-[2-[1-(2,6-dioxo-3-piperidyl)-3-methyl-2-oxo-benzimidazol-4-yl]ethoxy]piperidine-1-carboxylate], the DC50 was below 100 nM.

With `C#Cc1c(F)ccc2cccc(-c3ncc4c(N5CC6CCC(C5)N6)nc(OC[C@@]56CCCN5[C@H](COC(=O)N5CCC(OCCCc7ccc8c(c7)n(C)c(=O)n8C7CCC(=O)NC7=O)CC5)CC6)nc4c3F)c12` (stereo partly drawn) [Compound 136, [(3S,8S)-8-[[4-(3,8-Diazabicyclo[3.2.1]octan-3-yl)-7-(8-ethynyl-7-fluoro-1-naphthyl)-8-fluoro-pyrido[4,3-d]pyrimidin-2-yl]oxymethyl]-1,2,3,5,6,7-hexahydropyrrolizin-3-yl]methyl 4-[3-[1-(2,6-dioxo-3-piperidyl)-3-methyl-2-oxo-benzimidazol-5-yl]propoxy]piperidine-1-carboxylate], the DC50 was below 100 nM.

In the case of `C#Cc1c(F)ccc2cccc(-c3ncc4c(N5CC6CCC(C5)N6)nc(OC[C@@]56CCCN5[C@H](COC(=O)N5CCC(OCCCc7cccc8c7n(C)c(=O)n8C7CCC(=O)N(C)C7=O)CC5)CC6)nc4c3F)c12` (stereo partly drawn) [Compound 144, [(3S,8S)-8-[[4-(3,8-Diazabicyclo[3.2.1]octan-3-yl)-7-(8-ethynyl-7-fluoro-1-naphthyl)-8-fluoro-pyrido[4,3-d]pyrimidin-2-yl]oxymethyl]-1,2,3,5,6,7-hexahydropyrrolizin-3-yl]methyl 4-[3-[3-methyl-1-(1-methyl-2,6-dioxo-3-piperidyl)-2-oxo-benzimidazol-4-yl]propoxy]piperidine-1-carboxylate], the DC50 is at least 300 nM.

Turning to `C#Cc1c(F)ccc2cccc(-c3ncc4c(N5CC6CCC(C5)N6)nc(OC[C@@]56CCCN5[C@H](COC(=O)N5CCC(CNC7CCN(Cc8cccc9c8n(C)c(=O)n9C8CCC(=O)NC8=O)CC7)CC5)CC6)nc4c3F)c12` (stereo partly drawn) [Compound 145, [(3S,8S)-8-[[4-(3,8-Diazabicyclo[3.2.1]octan-3-yl)-7-(8-ethynyl-7-fluoro-1-naphthyl)-8-fluoro-pyrido[4,3-d]pyrimidin-2-yl]oxymethyl]-1,2,3,5,6,7-hexahydropyrrolizin-3-yl]methyl 4-[[[1-[[1-(2,6-dioxo-3-piperidyl)-3-methyl-2-oxo-benzimidazol-4-yl]methyl]-4-piperidyl]amino]methyl]piperidine-1-carboxylate], the DC50 was below 100 nM.
